# Values of other authors as cited in publication PMC7395068, “The evolution of strategies to minimise the risk of human drug-induced liver injury (DILI) in drug discovery and development” (Archives of Toxicology, 2020).
# Like-named read-outs stand apart in the source and are kept apart here.
# Tests used:
# [1] = tested on: HepG2 cells; conditions: In vitro Assay; ref Persson 2013; cited from earlier work
# [2] = cited from earlier work
# [3] = tested on: PHH spheroids; conditions: In vitro Assay; ref Vorrink 2018; cited from earlier work
# [4] = tested on: HepG2 cells, primary human hepatocytes; conditions: cited from earlier work
# [5] = tested on: human hepatocytes; conditions: In vitro Assay; ref Xu 2008; cited from earlier work
# [6] = tested on: HepG2 cells; conditions: In vitro Assay; ref O'Brien 2006; cited from earlier work
# [7] = ref Chen 2016; cited from earlier work
# [8] = tested on: PHH; conditions: In vitro Assay; ref Proctor 2017; cited from earlier work
# [9] = tested on: hLiMTs; conditions: In vitro Assay; ref Proctor 2017; cited from earlier work
# [10] = tested on: isolated mouse liver mitochondria; conditions: In vitro Assay; ref Porceddu 2012; cited from earlier work
# [11] = tested on: rBsep; conditions: cited from earlier work
# [12] = In vitro Assay, ref Garside 2014
# [13] = In vitro Assay, ref Dawson 2012
compound,measurement,setting,value
CCN(CC)Cc1cc(Nc2ccnc3cc(Cl)ccc23)ccc1O [amodiaquine],Cluser analysis,[1],+VE
same,In vivo DILI,[2]; […],+VE
same,In vivo DILI,[2]; ref Garside 2014,+VE
same,In vivo DILI,[2]; ref Gustafsson 2014,+VE
same,In vivo DILI,[2]; ref O'Brien 2006,+VE
same,In vivo DILI,[2]; ref Persson 2013,+VE
same,In vivo DILI,[2]; ref Proctor 2017,+VE
same,In vivo DILI,[2]; ref Schadt 2015,+VE
same,In vivo DILI,[2]; ref Vorrink 2018,+VE
same,In vivo DILI,[2]; ref Williams 2019,+VE
same,hLiMTs ATP <20 x Cmax,[3],+VE (IC20 < 20 × Cmax.tot cut-off)
same,Cluster 1-6 +VE Assay,[4]; [12],+VE
COc1ccc(CCN2CCC(Nc3nc4ccccc4n3Cc3ccc(F)cc3)CC2)cc1 [astemizole],Structural based (HCI),[5],-VE
same,Structural based (HCI),[6],-VE
same,In vivo DILI,[2]; ref Garside 2014,+VE
same,In vivo DILI,[2]; ref O'Brien 2006,-VE
same,In vivo DILI,[2]; ref Xu 2008,-VE
same,Cluster 1-6 +VE Assay,[4]; [12],+VE
[N-]=[N+]=CC(=O)OC[C@H](N)C(=O)O [azaserine],Structural based (HCI),[5],-VE
same,Cluster 1-6 +VE Assay,[4]; [12],+VE
CC[C@H]1OC(=O)[C@H](C)[C@@H](O[C@H]2C[C@@](C)(OC)[C@@H](O)[C@H](C)O2)[C@H](C)[C@@H](O[C@@H]2O[C@H](C)C[C@H](N(C)C)[C@H]2O)[C@](C)(O)C[C@@H](C)CN(C)[C@H](C)[C@@H](O)[C@]1(C)O [azithromycin],Structural based (HCI),[5],-VE
same,In vivo DILI,[2]; […],+VE
same,In vivo DILI,[2]; ref Garside 2014,+VE
same,In vivo DILI,[2]; ref Xu 2008,-VE
same,"DILI +VE (5-8), DILI -VE (-4)",[7],+VE
same,DILI severity category,[7],vLess-DILI-Concern
same,Cluster 1-6 +VE Assay,[4]; [12],+VE
NC(CO)C(=O)NNCc1ccc(O)c(O)c1O (centres unmarked) [benserazide],PHH ATP <100uM,[8],-VE
same,hLiMTs ATP <100uM,[9],-VE
same,In vivo DILI,[2]; ref Garside 2014,-VE
same,In vivo DILI,[2]; ref Proctor 2017,-VE
same,In vivo DILI,[2]; ref Schadt 2015,-VE
same,Cluster 1-6 +VE Assay,[4]; [12],-VE
CC(=O)Oc1ccc(C(c2ccc(OC(C)=O)cc2)c2ccccn2)cc1 [bisacodyl],Cluser analysis,[1],-VE
same,Structural based (HCI),[1],-VE
same,Structural based (HCI),[6],+VE
same,in vitro data EC2<=1x Cmax,[10],-VE
same,in vitro data EC20<=2uM,[10],+VE
same,In vivo DILI,[2]; ref Garside 2014,-VE
same,In vivo DILI,[2]; ref O'Brien 2006,-VE
same,In vivo DILI,[2]; ref Persson 2013,-VE
same,In vivo DILI,[2]; ref Porceddu 2012,-VE
same,"DILI +VE (5-8), DILI -VE (-4)",[7],-VE
same,DILI severity category,[7],vNo-DILI-Concern
same,Cluster 1-6 +VE Assay,[4]; [12],+VE
CCCCNc1cc(C(=O)O)cc(S(N)(=O)=O)c1Oc1ccccc1 [bumetanide],Structural based (HCI),[5],+VE
same,hLiMTs ATP <20 x Cmax,[3],-VE
same,Cluster 1-6 +VE Assay,[4]; [12],-VE
Cn1c(=O)c2c(ncn2C)n(C)c1=O [caffeine],in vitro data EC2<=1x Cmax,[10],+VE
same,Cluster 1-6 +VE Assay,[4],-VE
O=NN(CCCl)C(=O)NCCCl [carmustine],Inhibition of rBsep cutoff<3,[11]; [13],-VE
same,Inhibition of rBsep cutoff<1& cmax u>.2,[11],-VE
same,Cluster 1-6 +VE Assay,[4],+VE
CO[C@@]1(NC(=O)C2SC(=C(C(N)=O)C(=O)O)S2)C(=O)N2C(C(=O)O)=C(CSc3nnnn3C)CS[C@@H]21 (some centres unmarked) [cefotetan],In vivo DILI,[2]; ref Garside 2014,-VE
same,"DILI +VE (5-8), DILI -VE (-4)",[7],-VE
same,DILI severity category,[7],Ambiguous DILI-concern
same,Cluster 1-6 +VE Assay,[4]; [12],-VE
O=C(O)c1cc(=O)c2c(OCC(O)COc3cccc4oc(C(=O)O)cc(=O)c34)cccc2o1 [cromolyn],Inhibition of rBsep cutoff<1& cmax u>.2,[11]; [13],-VE
same,Inhibition of rBsep cutoff<3,[11]; [13],-VE
same,Structural based (HCI),[5],-VE
same,Cluster 1-6 +VE Assay,[4]; [12],-VE
Nc1ccc(S(=O)(=O)c2ccc(N)cc2)cc1 [dapsone],Inhibition of rBsep cutoff<1& cmax u>.2,[11]; [13],-VE
same,Inhibition of rBsep cutoff<3,[11]; [13],-VE
same,Structural based (HCI),[5],-VE
same,in vitro data EC2<=1x Cmax,[10],+VE
same,in vitro data EC20<=2uM,[10],-VE
same,In vivo DILI,[2]; […],+VE
same,In vivo DILI,[2]; ref Dawson 2012,+VE
same,In vivo DILI,[2]; ref Garside 2014,+VE
same,In vivo DILI,[2]; ref Gustafsson 2014,+VE
same,In vivo DILI,[2]; ref Khetani 2012,+VE
same,In vivo DILI,[2]; ref Porceddu 2012,+VE
same,In vivo DILI,[2]; ref Xu 2008,+VE
same,"DILI +VE (5-8), DILI -VE (-4)",[7],+VE
same,DILI severity category,[7],vLess-DILI-Concern
same,Cluster 1-6 +VE Assay,[4]; [12],+VE
Cc1nc(Nc2ncc(C(=O)Nc3c(C)cccc3Cl)s2)cc(N2CCN(CCO)CC2)n1 [dasatinib],in vitro data EC2<=1x Cmax,[10],-VE
same,in vitro data EC20<=2uM,[10],+VE
same,In vivo DILI,[2]; ref Garside 2014,+VE
same,In vivo DILI,[2]; ref Porceddu 2012,+VE
same,"DILI +VE (5-8), DILI -VE (-4)",[7],+VE
same,DILI severity category,[7],vLess-DILI-Concern
same,Cluster 1-6 +VE Assay,[4]; [12],+VE
